B1: 2638A 180-486: engineered amidase-SH3b construct initiated at codon 180, SEQ ID NO:6 (protein)
chain: MKHIYSNHIKGNKITAPKPSIQGVVIHNDYGSMTPSQYLPWLYARENNGTHVNGWASVYANRNEVLWYHPTDYVEWHCGNQWANANLIGFEVCESYPGRISDKLFLENEEATLKVAADVMKSYGLPVNRNTVRLHNEFFGTSCPHRSWDLHVGKGEPYTTTNINKMKDYFIKRIKHYYDGGKLEVSKAATIKQSDVKQEVKKQEAKQIVKATDWKQNKDGIWYKAEHASFTVTAPEGIITRYKGPWTGHPQAGVLQKGQTIKYDEVQKFDGHVWVSWETFEGETVYMPVRTWDAKTGKVGKLWGEIKLEHHHHHH
modifications: Phage 2638a
B2: 2638A 1-180Mut-486: repaired full length construct, codon 180 TTG silently mutated to CTC, SEQ ID NO:4 (protein)
chain: MLTAIDYLTKKGWKISSDPRTYDGYPKNYGYRNYHENGINYDEFCGGYHRAFDVYSNETNDVPAVTSGTVIEANDYGNFGGTFVIRDANDNDWIYGHLQRGSMRFVVGDKVNQGDIIGLQGNSNYYDNPMSVHLHLQLRPKDAKKDEKSQVCSGLAMEKYDITNLNAKQDKSKNGSVKELKHIYSNHIKGNKITAPKPSIQGVVIHNDYGSMTPSQYLPWLYARENNGTHVNGWASVYANRNEVLWYHPTDYVEWHCGNQWANANLIGFEVCESYPGRISDKLFLENEEATLKVAADVMKSYGLPVNRNTVRLHNEFFGTSCPHRSWDLHVGKGEPYTTTNINKMKDYFIKRIKHYYDGGKLEVSKAATIKQSDVKQEVKKQEAKQIVKATDWKQNKDGIWYKAEHASFTVTAPEGIITRYKGPWTGHPQAGVLQKGQTIKYDEVQKFDGHVWVSWETFEGETVYMPVRTWDAKTGKVGKLWGEIKLEHHHHHH
modifications: Mutated Phage 2638a
B3: 2638A 139-486: truncated endolysin with full length amidase and SH3b domains, SEQ ID NO:5 (protein)
chain: MRPKDAKKDEKSQVCSGLAMEKYDITNLNAKQDKSKNGSVKELKHIYSNHIKGNKITAPKPSIQGVVIHNDYGSMTPSQYLPWLYARENNGTHVNGWASVYANRNEVLWYHPTDYVEWHCGNQWANANLIGFEVCESYPGRISDKLFLENEEATLKVAADVMKSYGLPVNRNTVRLHNEFFGTSCPHRSWDLHVGKGEPYTTTNINKMKDYFIKRIKHYYDGGKLEVSKAATIKQSDVKQEVKKQEAKQIVKATDWKQNKDGIWYKAEHASFTVTAPEGIITRYKGPWTGHPQAGVLQKGQTIKYDEVQKFDGHVWVSWETFEGETVYMPVRTWDAKTGKVGKLWGEIKLEHHHHHH
modifications: Phage 2638a

Assays:
MRSA strain NRS382 = experiment: Control of systemic MRSA infection in a murine model; format: in vivo, Staphylococcus aureus; conditions: for Mean NRS382 Titer in the Blood: Recovered 48 hr post infection from surviving mice, same doses
[1] = tested on: S. aureus strain NRS119 (SA LinR #12; linezolid resistant); experiment: Plate lysis assay (FIG. 3); format: cell-based; conditions: lawn on TSA plates, observed over days
Description: Purified proteins for each construct were diluted in sterile nickel column elution buffer, and 6 μL of lysostaphin (11 μg) or the constructs (0.2 nmoles or ˜11 μg for the repaired construct 2638A 1-180Mut-486) was spotted onto a freshly spread lawn of S. aureus strain NRS119 (SA LinR #12; linezolid resistant) growing cells that had air dried for 30 min on tryptic soy agar (TSA) plates. L=[…] Lysostaphin (Sigma); Spot 1=11 μg; all other constructs are 0.2 nmoles (˜11 μg for the repaired construct 2638A 1-180Mut-486) […]. The spotted plates were air dried for 10 min in a laminar flow hood and incubated overnight in a 37° C. environment. Scoring of the cleared spots occurred within 20 h of plating the cells.
The Plate Lysis assay results (FIG. 3) agree with the turbidity reduction assay. Each of the M23 peptidase dependent or SH3b-truncating constructs showing weak activity on S. aureus strain Newman strain. In addition to the Plate Lysis results in FIG. 3, we have also examined numerous strains with reduced but real lytic activity (Table 1). However, the plate lysis results with the 2638A endolysin constructs are extremely novel in appearance. Plate lysis results are routinely visualized as a discrete cleared spot on a lawn of bacteria after a single overnight of culture. […]

S. aureus strain Newman [2] = experiment: Turbidity reduction assay; format: cell-based; conditions: 0.5 μM protein; live S. aureus Newman; Mn2+, Mg2+, Ca2+ 1 mM; FIG. 3
Description: The turbidity assay measures the drop in optical density (OD) resulting from lysis of the target bacteria with the phage endolysin-derived protein. Mid log phase (OD600 nm of 0.4-0.6) target cells were grown in Brain Heart Infusion (Becton Dickenson, Franklin Lakes, N.J.) and concentrated in lysing buffer A (LBA; 50 mM ammonium acetate, 10 mM CaCl2, 1 mM DTT at pH 6.2) to an OD600 nm of ˜2.0. The turbidity reduction assays were performed with identical molar amounts of proteins and S. aureus strain Newman with the addition of the bivalent metal cations Mn^2+, Mg^2+, and Ca^2+ at a concentration of 1 mM. The turbidity reduction assay contained 0.5 μM protein (5.7 μg of full length repaired construct: 2638A 1-180Mut-486 in 200 μl assay) unless otherwise noted. Lane 1, 2638A 1-486 (5.7 μg total protein in 200 μl assay); Lane 2, 2638A 1-196; Lane 3, 2638A 1-220; Lane 4, 2638A 1-244; Lane 5, 2638A 1-220::355-486; Lane 6, 2638A 1-411; Lane 7, 2638A 139-411; Lane 8, 2638A 139-486; Lane 9, 2638A 180-486; Lane 10, 2638A 1-180Mut-486. Mixing reactions between the repaired full length construct 2638A 1-180Mut-486 (R) and the engineered amidase-SH3b construct 2638A 180-486 (A) were performed in the following ratios Lane 11, R:A::1:1, 1 μM; Lane 12, R:A::1:1, 0.5 μM; Lane 13, R:A::1:3, 0.5 μM; and Lane 14, R:A::3:1, 0.5 μM. Optical Density measurements are taken at regular intervals. If the lysin can digest the cell wall, lysis will occur with a subsequent reduction in OD. Changes in the OD600 nm in the control sample (cells alone) were subtracted from samples containing both cells and lysin, before calculating the specific activity. Specific Activity=ΔOD600 nm/μM/min.

S. aureus strain Newman [3] = experiment: Zymogram analysis; format: cell-based; conditions: 5 μg loaded; SDS treated S. aureus Newman embedded in gel; FIG. 1C
Text: Zymograms are not usually interpreted quantitatively (especially since these were loaded with μg equivalents and not molar equivalents of enzyme) but rather are used to indicate that the minor contaminating bands in the preparations are not contributing to the activity of the preparation. There was virtually no activity from any of the minor (non-shadow) bands in the zymogram assay after extended periods. However, the presence of nearly equal amounts of the active shadow band (from stained SDS gel) in many preparations negated the ability to quantify the activity from either the isolated amidase domain (2638A 139-411; 2638A 139-486) or the full length construct.

[4] = 0 hours, Balb/c mice, I.P. 4×10^7 CFU, treated 30 min post infection: 2638A 200 μg/mouse I.P., Vancomycin 375 μg/mouse s.c., Oxacillin 1250 μg/mouse s.c.

Row | Molecule | % Survival (MRSA strain NRS382; [4]) | % Survival (MRSA strain NRS382; 4 hours, same model and doses) | % Survival (MRSA strain NRS382; 8 hours, same model and doses) | % Survival (MRSA strain NRS382; 12 hours, same model and doses) | % Survival (MRSA strain NRS382; 16 hours, same model and doses) | % Survival (MRSA strain NRS382; 20 hours, same model and doses) | % Survival (MRSA strain NRS382; 24 hours, same model and doses) | % Survival (MRSA strain NRS382; 28 hours, same model and doses) | % Survival (MRSA strain NRS382; 32 hours, same model and doses) | % Survival (MRSA strain NRS382; 36 hours, same model and doses) | % Survival (MRSA strain NRS382; 40 hours, same model and doses) | % Survival (MRSA strain NRS382; 44 hours, same model and doses) | Mean NRS382 Titer in the Blood (MRSA strain NRS382) | activity in the turbidity reduction assay (S. aureus strain Newman [2]) | further results
1 | Cc1onc(-c2ccccc2)c1C(=O)N[C@@H]1C(=O)N2[C@@H]1SC(C)(C)[C@@H]2C(=O)O [Oxacillin] | 100% | 100% | 100% | 100% | 100% | 40% | 40% | 30% | 30% | 30% | 30% | 30% | 0.9 ± 1.6 × 10^3 CFU/ml |  | survival rate (MRSA strain NRS382; after 16 to 20 hours, same model and doses): less than 40%; average septicemia score (MRSA strain NRS382; at 20 hours post infection, maintained until the end, score 0-5 per Table 4): approximately 4
2 | CN[C@H](CC(C)C)C(=O)N[C@H]1C(=O)N[C@@H](CC(N)=O)C(=O)N[C@H]2C(=O)N[C@H]3C(=O)N[C@H](C(=O)N[C@H](C(=O)O)c4cc(O)cc(O)c4-c4cc3ccc4O)[C@H](O)c3ccc(c(Cl)c3)Oc3cc2cc(c3O[C@@H]2O[C@H](CO)[C@@H](O)[C@H](O)[C@H]2O[C@H]2C[C@](C)(N)[C@H](O)[C@H](C)O2)Oc2ccc(cc2Cl)[C@H]1O [Vancomycin] | 100% | 100% | 100% | 100% | 100% | 100% | 100% | 100% | 100% | 100% | 100% | 100% | 1.8 ± 3.3 × 10^1 CFU/ml |  | % Survival (MRSA strain NRS382; 48 hours (end of the experiment), same model and doses): 100%; septicemia score at the end of the experiment (MRSA strain NRS382; 48 hours, score 0-5 per Table 4): 0
3 | Lysostaphin: Lysostaphin (Sigma), peptidoglycan hydrolase control in plate lysis [reference compound] |  |  |  |  |  |  |  |  |  |  |  |  |  |  | appearance and persistence of the cleared zone in plate lysis [1]: cleared zone remains that way for days or weeks
4 | B1 |  |  |  |  |  |  |  |  |  |  |  |  |  | appreciable activity | 
5 | B2 |  |  |  |  |  |  |  |  |  |  |  |  |  | appreciable activity | 
6 | B3 |  |  |  |  |  |  |  |  |  |  |  |  |  | appreciable activity | staphylolytic activity (zones of clearing) in the zymogram (S. aureus strain Newman [3]): active

Source: patent US9206411B2, “Staphylococcal Phage2638A endolysin amidase domain is lytic for Staphylococcus aureus” (priority 2012, dated 2015)
